In patent EP4786454A1, “HETEROARYL DERIVATIVE AND USE THEREOF” (priority 2023, dated 2025):

Assays:
male CD-1 mice = assay: Maximal electroshock-induced epilepsy model, behavioral pharmacodynamics; assay type: in vivo; details: 5 mg/kg orally, one hour before electrical stimulation
Source text: This study used behavioral tests in male CD-1 mice to investigate the effects of test compounds on acute epileptic seizures behavior induced by maximal electroshock.
Male CD-1 mice (25 to 35g) were used as the experimental animals and fed with standard feed (Beijing Vital River Laboratory Animal Technology Co., Ltd.).
After arriving at the animal facility, the experimental animals needed to acclimatize for at least one week. The mice were observed daily for vital signs, and randomly divided into groups according to their body weights one day before the drug administration. One hour before the electrical stimulation, different dosages of the test compound were orally administered to each group. On the day of the assay, the male CD-1 mice in each group were anesthetized locally at the cornea with 2% lidocaine. Then, silver bipolar electrodes were used to electrically stimulate the cornea of the mice with 18 mA, 60 Hz, a pulse width of 0.6 ms, and a stimulation time of 1 s to induce seizures. Subsequently, the latency of seizures and the duration of limb rigidity in mice after the electrical stimulation were observed, and the protection rate from seizures for each group was statistically analyzed.

hKCNQ2/3 = target: T1, hKCNQ2/3 (Homo sapiens, UniProt O43525+O43526); assay: hKCNQ2/3 thallium flux assay (FLIPR); assay type: cell-based; details: agonistic effect, CHO cell line stably expressing hKCNQ2/3
T1 construct: expressed in transfected cells; host or cells: CHO
T1 sequence (O43525 whole entry): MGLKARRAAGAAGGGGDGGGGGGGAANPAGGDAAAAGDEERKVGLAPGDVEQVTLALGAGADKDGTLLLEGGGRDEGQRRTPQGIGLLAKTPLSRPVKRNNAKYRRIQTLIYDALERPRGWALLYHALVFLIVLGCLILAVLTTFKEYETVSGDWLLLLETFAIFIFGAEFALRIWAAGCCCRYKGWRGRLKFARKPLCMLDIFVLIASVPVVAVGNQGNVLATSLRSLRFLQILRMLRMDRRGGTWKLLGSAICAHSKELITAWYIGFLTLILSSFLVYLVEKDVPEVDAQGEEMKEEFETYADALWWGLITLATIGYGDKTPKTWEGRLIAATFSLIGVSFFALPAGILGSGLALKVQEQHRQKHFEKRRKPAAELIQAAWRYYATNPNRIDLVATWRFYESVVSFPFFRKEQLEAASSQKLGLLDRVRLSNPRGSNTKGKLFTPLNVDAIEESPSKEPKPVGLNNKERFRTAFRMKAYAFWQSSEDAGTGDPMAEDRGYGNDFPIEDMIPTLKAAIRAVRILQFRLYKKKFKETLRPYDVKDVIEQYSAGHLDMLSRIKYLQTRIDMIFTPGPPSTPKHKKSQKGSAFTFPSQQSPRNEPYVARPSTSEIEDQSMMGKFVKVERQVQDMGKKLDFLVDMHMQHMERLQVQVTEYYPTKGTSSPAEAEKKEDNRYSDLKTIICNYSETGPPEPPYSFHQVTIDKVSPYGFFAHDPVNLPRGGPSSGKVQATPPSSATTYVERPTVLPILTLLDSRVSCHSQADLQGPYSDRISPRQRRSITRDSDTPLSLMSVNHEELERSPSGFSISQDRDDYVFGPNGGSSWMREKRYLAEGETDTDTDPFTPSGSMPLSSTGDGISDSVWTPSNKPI
T1 sequence (O43526 whole entry): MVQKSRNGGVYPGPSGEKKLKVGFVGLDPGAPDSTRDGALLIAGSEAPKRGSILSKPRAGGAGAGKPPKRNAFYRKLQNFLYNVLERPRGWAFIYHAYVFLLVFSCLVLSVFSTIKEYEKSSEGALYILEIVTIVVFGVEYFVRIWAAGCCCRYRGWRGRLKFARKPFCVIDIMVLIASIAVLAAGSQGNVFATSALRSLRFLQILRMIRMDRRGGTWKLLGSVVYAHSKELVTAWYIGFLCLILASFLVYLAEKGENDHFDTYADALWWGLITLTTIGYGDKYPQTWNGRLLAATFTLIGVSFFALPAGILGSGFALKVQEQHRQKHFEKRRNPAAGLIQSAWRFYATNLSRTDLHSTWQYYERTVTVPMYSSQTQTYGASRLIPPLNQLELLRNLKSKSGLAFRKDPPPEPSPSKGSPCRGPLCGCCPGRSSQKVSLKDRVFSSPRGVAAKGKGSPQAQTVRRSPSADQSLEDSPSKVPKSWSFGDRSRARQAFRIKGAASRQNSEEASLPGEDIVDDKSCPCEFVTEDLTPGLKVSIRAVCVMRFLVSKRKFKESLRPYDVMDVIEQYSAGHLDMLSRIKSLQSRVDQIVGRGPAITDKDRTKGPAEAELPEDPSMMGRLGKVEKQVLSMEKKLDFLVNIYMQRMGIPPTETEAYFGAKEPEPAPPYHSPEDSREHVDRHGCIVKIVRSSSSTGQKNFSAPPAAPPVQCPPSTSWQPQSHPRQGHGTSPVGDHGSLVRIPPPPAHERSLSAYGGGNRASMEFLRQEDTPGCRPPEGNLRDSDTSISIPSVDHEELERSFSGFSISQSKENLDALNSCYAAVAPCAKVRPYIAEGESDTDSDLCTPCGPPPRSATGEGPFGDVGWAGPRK
Source text: The present disclosure also provides the following assay methods: • Assay method 1: hKCNQ2/3 thallium flux assay • Purpose of the assay: To determine the in vitro concentration-response relationship of the compounds in a CHO cell line stably expressing hKCNQ2/3 using FLIPR thallium flux assay.
CHO cells stably transfected with hKCNQ2/3.
The cell line was passaged three times a week at a split ratio of 1:2 to 1:3. When the cells grew to a confluence degree of greater than 80% in a T-75 cell flask, they were digested with 0.25% trypsin-EDTA solution for about 1 minute, and then the cells were transferred from the cell flask for passage. According to the split ratio, the cells were transferred to another T-75 cell flask containing complete cell growth culture medium. Note: In order to maintain the logarithmic growth of cells, the cell growth should be maintained in a subconfluent monolayer state. The cells were passaged every 2 to 3 days according to the cell doubling time.
• (1) Day 1, cell preparation: The cells were digested according to the above method, and the cell density and viability were determined using Cell Countess. The volume of the single-cell suspension was adjusted with complete cell growth culture medium. Then, the hKCNQ2/3_CHO cells were seeded at a density of approximately 20,000 cells/well (30 µL/well) into a PDL-precoated 384-well plate. Then, the plate was incubated at 37 °C with 5% CO2 humidified air in an incubator overnight. • (2) Day 2, compound preparation: A test compound was diluted to a storage concentration with dimethyl sulfoxide (DMSO), and stored in a freezer at -20 °C. A compound addition program was set up on the ECHO liquid workstation, and the compound was added to the plate using the ECHO liquid workstation. A positive control was prepared using Retigabine (RTG) with a maximum concentration of 100 µM, which was subjected to a 3-fold dilution, resulting in a total of 9 doses constituting the plate map required for plating. Prepare the plate using a stimulation buffer containing 5 mM K^+ and 1 mM Tl^+. Note: 1) K2SO4 and Tl2SO4 were prepared in a 1× chloride-free buffer. When different voltage-gated potassium channels were involved, the concentrations of Tl^+ and K^+ were needed to be adjusted. The concentration of Tl^+ was approximately 0.5 mM to 5 mM, and the concentration of K^+ was approximately 5 mM to 30 mM. 2) Each 1 mM solution of K2SO4 and Tl2SO4 contained 2 mM K^+ and Tl^+. The final concentration should be calculated based on the ion concentrations. 3) TlCl was easily precipitated and a chloride-free buffer was required. • (3) Day 2, assay testing: When the cells reached the confluence degree, the cell analysis plate was taken out from the incubator. The assay buffer was prepared and the Tl^+ dye (Molecular Devices # R8222) was diluted. The culture medium was discarded using the liquid workstation Bravo and 25 µL of Tl^+ dye was added to each well. The plate was incubated for 1 hour, and then the cell analysis plate, composite plate, and FLIPR tip were placed in FLIPR^TETRA (Molecular Devices, USA) for FLIPR assay. The tip was set up, and then the baseline was read for 60 seconds. Then, 12.5 µL from the composite plate (3×) was added to the cell analysis plate, and the data were recorded for at least 5 minutes at the same time. • (4) Data processing: The maximum signal was generated with FLIPR software. Excel (2013) and Prism 6.01 were used for data analysis. The data quality control was performed with S/B > 2.00 and Z-factor > 0.50. IC50 or EC50 was defined as the midline between the lowest and the highest plateaus, and it was calculated using a four-parameter logistic model with Prism 6.01.
Purpose of the assay: To determine the in vitro concentration-response relationship of the compounds in a CHO cell line stably expressing hKCNQ2/3 using FLIPR thallium flux assay. […]

CC(C)(C)CC(=O)Nc1nc2c(F)cc(C#N)cn2c1-c1ccc(OC(F)(F)F)cc1 [Compound 1]
Protection rate from seizures (male CD-1 mice): 66.7%

CC(C)(C)CC(=O)Nc1nc2c(F)cc(C#N)cn2c1C1=CCCC1 [Compound 3]
EC50 (hKCNQ2/3): 480 nM | Protection rate from seizures (male CD-1 mice): 66.7%

CC(C)(C)CC(=O)Nc1nc2c(F)cc(C#N)cn2c1C12CC(C1)C2 [Compound 5]
EC50 (hKCNQ2/3): 200 nM

CC(C)(C)CC(=O)Nc1nc2c(C(F)(F)F)cc(C#N)cn2c1C12CC(C1)C2 [Compound 6]
EC50 (hKCNQ2/3): 710 nM
